Measured values: US10576151B2, “Ciclopirox for use in modulation of glucose homeostasis” (UNIVERSITY OF SOUTH CAROLINA, priority 2015, dated 2020)

Legend:
C57BI/6 mice [1] = experiment: Intraperitoneal insulin tolerance (insulin sensitivity) test; format: in vivo
Method: (§1) Glucose Level Determination and Intraperitoneal Insulin Tolerance Test. Mice were fasted for 6 h. Glucose levels of mice were measured by an Accu-Chek Active meter (ROCHE) with blood sample obtained from the tail. For glucose tolerance, mice were injected i.p. with 2 g glucose/kg blood glucose was checked at different time points as indicated (at either 0, 30, 60, 90, 120, 160, 220 min.). For insulin resistance test, mice were injected intraperitoneally at a dose of 0.75 units/kg with human insulin (0.75 U/kg body weight; Sigma) at different time points as indicated, as for glucose tolerance after insulin injection and blood glucose was measured as described.

insulin = experiment: Western blot of insulin levels in islets in culture; format: cell-based, mouse
Method: Western Blotting. The mouse islets were treated with CPX 20 μM for 24 h and lysed in RIPA buffer [50 mM Tris, pH 7.2; 150 mM NaCl; 1% sodium deoxycholate; 0.1% SDS; 1% Triton-X 100; 10 mM NaF; 1 mM Na3VO4; protease inhibitor cocktail (1:1000, Sigma, St. Louis, Mo.)] and were subjected to immunoblot analysis by standard methods. Proteins were resolved on a 10% SDS-PAGE and transferred to a nitrocellulose membrane (Bio-Rad, Hercules, Calif.). Membranes were probed overnight with GADD153 (F-168), sc-575 from Santa Cruz Biotechnology (1:50); p21 (F-5), sc-6246 from Santa Cruz Biotechnology (1:200); actin, clone C4 MAB1501 from Millipore (Billerica, Mass., USA) (1:2000); BiP antibody (cat. no. 3183) from Cell Signaling (Danvers, Mass., USA) (1:1000); GRP94 antibody (H-212), sc-11402 from Santa Cruz Biotechnology (1:500); insulin rabbit polyclonal H-86, sc-9168 from Santa Cruz Biotechnology (1:500) antibodies followed by incubation with horseradish peroxidase-conjugated (HRP) anti-mouse (1:10000), goat anti-rabbit IgG (1:10000, Santa Cruz biotechnology Inc., Santa Cruz, Calif., USA) for 1 hr. After incubation with enhanced chemiluminescence reagents (Santa Cruz biotechnology Inc.), membranes were analyzed using an Image J software for Windows.
In order to understand better how CPX operates in β cells, it was tested to determine if it affected the efficiency by which insulin is produced following glucose stimulation. […] In view of the antidiabetic activity of CPX in vivo, the inhibition of insulin release appears contradictory. […]
While modulation of insulin release by CPX constitutes a challenging mechanism by which CPX may affect ER stress, how CPX regulates insulin expression remains obscure. […] To test this hypothesis, islets were exposed to iron citrate, alone or combined with CPX, and the levels were recorded of chaperones BiP, GRP94 and CHOP, as well as of insulin.

C57BI/6 mice [2] = experiment: Glucose tolerance test (i.p. 2 g glucose/kg); format: in vivo
Method: as §1

diabetic wt mice = experiment: Fasting glucose in diet-induced diabetic wild type mice; format: in vivo, C57BI/6 mice; conditions: wt mice diabetic by high fat diet and sweetened water; CPX 25 mg/kg daily (FIG. 5A)
Excerpt: In Vivo Analysis of Anti-Diabetic Effect of CPX. Mice were randomly grouped. A group of C57BI/6 mice 4-5 weeks old, were fed with either a solution of 10% sucrose and a diet containing 40% kcal as a high-fat diet (HFD; Open Source Diets (New Brunswick, N.J., USA) D12451, 40% calories/fat with free access to (10%) sweetened water (sucrose) or a control chow diet containing 10% of kcal as fat (low-fat diet) and drinking water with no added sucrose (control). Mice with a glucose concentration exceeding 180 mg/dL were considered diabetic, after 2 consecutive glucose measurements. The blood glucose levels were measured using an Accu-Check blood glucose monitor (Roche, Indianapolis, Ind., USA) using blood sample collected from the tail vein. Diabetic mice were treated with either treated daily for 20 days by oral gavages with CPX (25 mg/kg) prepared in a solution (4% ethanol, 5.2% Tween 80, and 5.2% PEG 400) or vehicle control. […] Glucose levels of mice were measured by an Accu-Chek Active meter (ROCHE) with blood sample obtained from the tail. […] For insulin resistance test, mice were injected intraperitoneally at a dose of 0.75 units/kg with human insulin (0.75 U/kg body weight; Sigma) at different time points as indicated, as for glucose tolerance after insulin injection and blood glucose was measured as described. […]

Compound: Cc1cc(C2CCCCC2)n(O)c(=O)c1 [CPX, 6-cyclohexyl-1-hydroxy-4-methylpyridin-2(1H)-one]
- insulin sensitivity (C57BI/6 mice [1]; diabetic mice, CPX vs saline (FIG. 6B)): restored the response of diabetic mice to acute administration of glucose
- insulin sensitivity (C57BI/6 mice [1]; non-diabetic wt mice on normal diet, CPX vs saline (FIG. 7C)): not affected
- levels of intracellular insulin (insulin; islets in high glucose-containing media with CPX (FIG. 11B)): moderate suppression
- insulin production (insulin; islets, iron citrate with concomitant CPX (FIG. 12A)): compromised the effects of iron citrate
- glucose tolerance (C57BI/6 mice [2]; diabetic mice, CPX vs saline (FIG. 6A)): restored the response of diabetic mice to acute administration of glucose
- glucose tolerance (C57BI/6 mice [2]; non-diabetic wt mice on normal diet, CPX vs saline (FIG. 7B)): not affected
- blood glucose levels (fasting glucose) (diabetic wt mice): effectively improved glucose homeostasis causing reduction of blood glucose levels
